Measured values taken from patent publication US20260364184A1, “COMPOUND BASED ON OXOISOINDOLINYL-SUBSTITUTED TETRAHYDROPYRIMIDINE-DIONE AND USE THEREOF” (GLUETACS THERAPEUTICS (SHANGHAI) CO., LTD., priority 2023, published 2026).
Like-named read-outs stand apart in the source and are kept apart here.

Key:
[1] = test system: Human acute lymphocytic leukemia T lymphocytes cell line (CCRF-CEM); assay: Inhibition of CCRF-CEM cell proliferation (CellTiter luminescent viability); assay type: cell-based; settings: Homo sapiens, 96 h, Table IH2, BCL-2 inhibitor-based; for inhibition at 0.01 µM: 10 nM, read-out: Inhibition Rate at 10 nM (%); for inhibition at 0.5 µM: 500 nM, read-out: Inhibition Rate at 500 nM (%)
BCL-2 = target: T1, BCL-2 (Homo sapiens, UniProt P10415); assay: Western blot degradation of BCL-2; assay type: cell-based; settings: Molt-4 Cell; 24 hours
T1 construct: expression of target proteins in cells; endogenous in cells
Experimental: Conventional Western blot assay was performed to evaluate the effects of the compounds of the present disclosure on the expression of target proteins in cells.
(1) Cell Seeding and Protein Harvesting: The selected cells were processed according to the cell seeding procedure and protein harvesting procedure in Table II-2.
(2) To the collected supernatant, 5×SDS sample loading buffer was added, followed by denaturation at 95 °C for 5 minutes. The denatured samples were then separated by SDS-PAGE electrophoresis on a polyacrylamide gel. Proteins were transferred to a nitrocellulose membrane (0.45 μm NC membrane), blocked with blocking buffer at room temperature for 1 hour, and subjected to antibody incubation and development procedures according to the antibody manufacturer's instructions (Cell Signaling Technology).
Half-Maximal Degradation Concentration value (the drug concentration required for degrading proteins by 50%, abbreviated as DC50) reads method: comparing the grayscale values of Western blot bands from drug-treated samples with those from blank DMSO-treated controls, and identifying the drug concentration range at which the grayscale value is half that of the DMSO-treated control bands.
DC50 values can be calculated using ImageJ software to measure grayscale values of Western blot bands from drug-treated samples. The concentration-response curve is fitted to estimate the drug concentration corresponding to half the grayscale value.
Target protein remaining (%) refers to the percentage of target protein remaining in cells after treatment with protein degrader compounds.
Calculation method for target protein remaining (%): Use ImageJ software to measure grayscale values of Western blot bands from drug (protein degrader)-treated samples. The grayscale value of drug-treated bands is divided by that of internal control protein bands, and the resulting quotient is normalized to obtain the relative percentage of remaining target protein after protein degrader treatment.
Target protein degradation rate (%)=1−target protein remaining (%).

[2] = test system: Human prostate cancer cell line (NCI-H358); assay: Inhibition of NCI-H358 cell proliferation (CellTiter luminescent viability); settings: Table IH1, BCL-2 inhibitor-based, 96 hours; for inhibition at 0.01 µM: NCI-H358, 10 nM, read-out: Inhibition Rate at 10 nM (%); for inhibition at 0.5 µM: NCI-H358, 500 nM, read-out: Inhibition Rate at 500 nM (%)
Experimental: (§1) The tumor cells used herein were cultured in a cell culture medium listed in table 3 at 37 °C in an incubator with 5% CO2. Prior to experimentation, all cell lines used were correctly identified by STR profiling, and tested negative for mycoplasma contamination using a mycoplasma detection kit through routine screenings.
(§2) The IC50 values of the compounds of the present disclosure (including the compounds in Table 1, Table 2, and Examples 1-468) were determined using the CellTiter-Meiluncell Luminescent Cell Viability Assay Kit from Dalian Meilun Biotech Co., Ltd. The detailed procedure is as follows: Tumor cells were seeded in 96-well cell culture plates at the densities specified in Table 4. On the following day, the test compounds of the present disclosure were subjected to serial dilution. The dilution can be performed according to one of the following two methods: • (1) The first dilution method: The test compounds of the present disclosure (including the compounds in Table 1, Table 2, and Examples 1-468) were subjected to 5-fold serial dilutions starting from a highest concentration of 2000 μM, resulting in a total of 9 concentrations from high to low (2000, 400, 80, 16, 3.2, 0.64, 0.128, 0.0256, 0.00512 μM). Subsequently, 0.5 μL of the test compound dilution was transferred into the 96-well plate containing the cells, with each well containing 100 μL of cell culture medium. […] Into the 96-well plate, the diluted test compounds and corresponding detection reagents were added, resulting in final test compound concentrations of 500 nM and 10 nM, respectively. The experimental procedure is described below using the diluted 2 μM test compound as an example.
(§3) 0.5 μL of the aforementioned diluted compound of the present disclosure (including the compounds in Table 1, Table 2, and Examples 1-468) was added to the seeded cells in 100 μL of medium, yielding a final test compound concentration of 10 nM. After the cells were treated with the compounds of the present disclosure for a specified period, the cell viability assay reagent was added to the culture medium according to the kit's instructions to determine cell viability. […] All controls were treated using the same procedure as the compounds of the present disclosure. The growth inhibition curves for the compounds of the present disclosure were plotted using Prism GraphPad software, and the IC50 values were calculated therefrom.

[3] = test system: Human Acute T Lymphoblastic Leukemia Cells (Molt-4); assay: Inhibition of Molt-4 cell proliferation (CellTiter luminescent viability); assay type: cell-based; settings: Homo sapiens; for inhibition at 0.01 µM: read-out: Inhibition Rate at 10 nM (%); for inhibition at 0.5 µM: read-out: Inhibition Rate at 500 nM (%)
[4] = target: T2, human Cereblon WT GST-tagged protein (CRBN) (Homo sapiens, UniProt Q96SW2); assay: CRBN binding by HTRF (Cereblon binding kit)
T2 construct: purchased CISBIO 64BDCRBNPEH
Outline: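 GST-tagged human Cereblon WT was incubated 3 h at room temperature with compound, thalidomide-Re tracer and Eu anti-GST antibody. Final compound concentrations were 10 to 0.00064 µM (7 points) or 2 and 0.5 µM. Inhibition rate was calculated from HTRF 665/620 nm ratios versus solvent and blank controls.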

[5] = test system: Human myeloid monocytic leukemia cell line (MV-4-11); assay: Inhibition of MV-4-11 cell proliferation (CellTiter luminescent viability); assay type: cell-based; settings: Homo sapiens, MV4-11, MV-4-11; for inhibition at 0.01 µM: 10 nM, read-out: Inhibition Rate at 10 nM (%); for inhibition at 0.5 µM: 500 nM, read-out: Inhibition Rate at 500 nM (%)
Outline: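 Cells are seeded in 96-well plates, cultured at 37 °C, 5% CO2, and treated next day with 5-fold serial compound dilutions (stock series from 2000 μM; 0.5 μL into 100 μL medium). Viability is read by CellTiter-Meiluncell luminescence after the set exposure, and IC50 is taken from growth-inhibition curves.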

[6] = test system: Human diffuse large B-cell lymphoma cell line (WSU-DLCL2); assay: Inhibition of WSU-DLCL2 cell proliferation (CellTiter luminescent viability); assay type: cell-based; settings: Homo sapiens; for inhibition at 0.01 µM: WSUDLCL2, 10 nM, read-out: Inhibition Rate at 10 nM (%); for inhibition at 0.5 µM: WSUDLCL2, 500 nM, read-out: Inhibition Rate at 500 nM (%)
Experimental: as §1, §2, §3

[7] = MOLT-4, 96 h, Table IH3, BCL-2 inhibitor-based, Molt-4, 10 nM, 96 hours
[8] = MOLT-4, 96 h, Table IH3, BCL-2 inhibitor-based, Molt-4, 500 nM, 96 hours
[9] = MOLT-4, Molt-4, 10 nM, Table IN2
[10] = MOLT-4, Molt-4, 500 nM, Table IN2

T1 sequence (P10415 whole entry): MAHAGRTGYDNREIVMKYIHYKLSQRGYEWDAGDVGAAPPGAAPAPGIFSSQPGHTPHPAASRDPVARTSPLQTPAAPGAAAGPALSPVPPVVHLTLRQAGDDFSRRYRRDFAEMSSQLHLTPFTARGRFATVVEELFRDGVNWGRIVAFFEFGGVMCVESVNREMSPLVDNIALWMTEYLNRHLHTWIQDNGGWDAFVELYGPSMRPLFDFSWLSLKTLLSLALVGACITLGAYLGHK
T2 sequence (Q96SW2 whole entry): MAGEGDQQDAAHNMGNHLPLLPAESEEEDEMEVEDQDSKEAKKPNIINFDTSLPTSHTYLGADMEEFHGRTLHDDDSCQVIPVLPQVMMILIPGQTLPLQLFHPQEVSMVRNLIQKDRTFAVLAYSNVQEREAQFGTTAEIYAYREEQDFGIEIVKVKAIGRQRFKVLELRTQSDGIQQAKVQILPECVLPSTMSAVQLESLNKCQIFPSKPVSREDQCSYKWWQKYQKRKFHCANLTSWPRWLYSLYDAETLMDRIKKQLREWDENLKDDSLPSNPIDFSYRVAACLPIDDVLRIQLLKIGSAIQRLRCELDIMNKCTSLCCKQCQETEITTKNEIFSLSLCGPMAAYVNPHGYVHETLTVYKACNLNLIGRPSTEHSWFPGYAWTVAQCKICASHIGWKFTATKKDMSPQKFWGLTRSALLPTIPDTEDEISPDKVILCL

Degradation of substrate protein BCL-2 (substrate protein remaining %) (BCL-2) | inhibition at 0.5 µM ([4]; 0.5 μM, read-out: Inhibition Rate at 0.5 μM (%)) | inhibition at 2 µM ([4]; 2 μM, read-out: Inhibition Rate at 2 μM (%)) | SMILES | inhibition at 0.01 µM [1] | inhibition at 0.5 µM [1] | inhibition at 0.01 µM [2] | inhibition at 0.5 µM [2] | inhibition at 0.01 µM [3, 7] | inhibition at 0.5 µM [3, 8] | inhibition at 0.01 µM [3, 9] | inhibition at 0.5 µM [3, 10] | inhibition at 0.01 µM [5] | inhibition at 0.5 µM [5] | inhibition at 0.01 µM [6] | inhibition at 0.5 µM [6] | inhibition at 0.01 µM ([3]; MOLT-4, Molt-4, 10 nM, Table IN3) | inhibition at 0.5 µM ([3]; MOLT-4, Molt-4, 500 nM, Table IN3)
A (0%≤substrate protein remaining %≤80%) |  |  | CC1(C)CCC(c2ccc(Cl)cc2)=C(CN2CCN(c3ccc(C(=O)NS(=O)(=O)c4ccc(N[C@H](CCN5C6CCC5CN(Cc5ccc7c(c5)CN(N5CCC(=O)NC5=O)C7=O)C6)CSc5ccccc5)c(S(=O)(=O)C(F)(F)F)c4)cc3)CC2)C1 [GT-07814, 4-(4-((4′-chloro-4,4-dimethyl-3,4,5,6-tetrahydro-[1,1′-biphenyl]-2-yl)methyl)piperazin-1-yl)-N-((4-(((2R)-4-(3-((2-(2,4-dioxotetrahydropyrimidin-1(2H)-yl)-1-oxoisoindolin-5-yl)methyl)-3,8-diazabicyclo[3.2.1]octan-8-yl)-1-(phenylthio)butan-2-yl)amino)-3-((trifluoromethyl)sulfonyl)phenyl)sulfonyl)benzamide] | 50 to 60% | 80 to 100% | 15 to 20% | 40 to 50% | 80 to 100% | 80 to 100% |  |  |  |  |  |  |  | 
A (0%≤substrate protein remaining %≤80%) |  |  | CC1(C)CCC(c2ccc(Cl)cc2)=C(CN2CCN(c3ccc(C(=O)NS(=O)(=O)c4ccc(N[C@H](CCN5CC6CCC5CN6Cc5ccc6c(c5)C(=O)N(N5CCC(=O)NC5=O)C6=O)CSc5ccccc5)c(S(=O)(=O)C(F)(F)F)c4)cc3)CC2)C1 (stereo partly drawn) [GT-07815, 4-(4-((4′-chloro-4,4-dimethyl-3,4,5,6-tetrahydro-[1,1′-biphenyl]-2-yl)methyl)piperazin-1-yl)-N-((4-(((2R)-4-(5-((2-(2,4-dioxotetrahydropyrimidin-1(2H)-yl)-1,3-dioxoisoindolin-5-yl)methyl)-2,5-diazabicyclo[2.2.2]octan-2-yl)-1-(phenylthio)butan-2-yl)amino)-3-((trifluoromethyl)sulfonyl)phenyl)sulfonyl)benzamide] | -5 to 0% | 50 to 60% | 15 to 20% | 30 to 40% | 5 to 10% | 80 to 100% |  |  |  |  |  |  |  | 
 | 20 to 30% | 53 to 60% | C[C@@H]1CNC(=O)c2cc3ccc(C(=O)Nc4cnn(Cc5ccc(N6CCN(Cc7ccc8c(c7)CN(N7CCC(=O)NC7=O)C8=O)CC6)cc5)c4)nc3n21 [GT-08149, (R)—N-(1-(4-(4-((2-(2,4-dioxotetrahydropyrimidin-1(2H)-yl)-1-oxoisoindolin-5-yl)methyl)piperazin-1-yl)benzyl)-1H-pyrazol-4-yl)-9-methyl-6-oxo-6,7,8,9-tetrahydropyrido[3′,2′: 4,5]pyrrolo[1,2-a]pyrazine-2-carboxamide] |  |  |  |  |  |  | -5 to 0% | 30 to 50% | 5 to 10% | 70 to 80% | 5 to 10% | 40 to 50% |  | 
A (0%≤substrate protein remaining %≤80%) |  |  | CC1(C)CCC(c2ccc(Cl)cc2)=C(CN2CCN(c3ccc(C(=O)NS(=O)(=O)c4ccc(N[C@H](CCN5CC6CCC(C5)N6Cc5ccc6c(c5)C(=O)N(N5CCC(=O)NC5=O)C6=O)CSc5ccccc5)c(S(=O)(=O)C(F)(F)F)c4)cc3)CC2)C1 [GT-07817, 4-(4-((4′-chloro-4,4-dimethyl-3,4,5,6-tetrahydro-[1,1′-biphenyl]-2-yl)methyl)piperazin-1-yl)-N-((4-(((2R)-4-(8-((2-(2,4-dioxotetrahydropyrimidin-1(2H)-yl)-1,3-dioxoisoindolin-5-yl)methyl)-3,8-diazabicyclo[3.2.1]octan-3-yl)-1-(phenylthio)butan-2-yl)amino)-3-((trifluoromethyl)sulfonyl)phenyl)sulfonyl)benzamide] |  |  |  |  |  |  |  |  |  |  |  |  |  | 
A (0%≤substrate protein remaining %≤80%) |  |  | CC1(C)CCC(c2ccc(Cl)cc2)=C(CN2CCN(c3ccc(C(=O)NS(=O)(=O)c4ccc(N[C@H](CCN5C[C@H]6C[C@@H]5CN6Cc5ccc6c(c5)C(=O)N(N5CCC(=O)NC5=O)C6=O)CSc5ccccc5)c(S(=O)(=O)C(F)(F)F)c4)cc3)CC2)C1 [GT-07816, 4-(4-((4′-chloro-4,4-dimethyl-3,4,5,6-tetrahydro-[1,1′-biphenyl]-2-yl)methyl)piperazin-1-yl)-N-((4-(((R)-4-((1R,4R)-5-((2-(2,4-dioxotetrahydropyrimidin-1(2H)-yl)-1,3-dioxoisoindolin-5-yl)methyl)-2,5-diazabicyclo[2.2.1]heptan-2-yl)-1-(phenylthio)butan-2-yl)amino)-3-((trifluoromethyl)sulfonyl)phenyl)sulfonyl)benzamide] | 5 to 10% | 40 to 50% |  |  | 10 to 15% | 60 to 70% |  |  |  |  |  |  |  | 
 |  |  | C[C@@H]1CNC(=O)c2cc3ccc(C(=O)Nc4cnn(Cc5ccc(N6CCC(N7CCN(Cc8ccc9c(c8)CN(N8CCC(=O)NC8=O)C9=O)CC7)CC6)cc5)c4)nc3n21 [GT-08151, (R)—N-(1-(4-(4-(4-((2-(2,4-dioxotetrahydropyrimidin-1(2H)-yl)-1-oxoisoindolin-5-yl)methyl)piperazin-1-yl)piperidin-1-yl)benzyl)-1H-pyrazol-4-yl)-9-methyl-6-oxo-6,7,8,9-tetrahydropyrido[3′,2′: 4,5]pyrrolo[1,2-a]pyrazine-2-carboxamide] |  |  |  |  |  |  | 0 to 5% | 30 to 50% | 5 to 10% | 80 to 100% | 10 to 15% | 50 to 60% | 20 to 30% | 10 to 15%
